Assay results as given in patent US12247045B2, “MAP4K4 inhibitors” (Imperial College Innovations Limited, priority 2018, dated 2025).
pIC50: −log10 of the molar value.

Target: T1, human MAP4K4 kinase domain (Homo sapiens, UniProt O95819)
T1 construct: 0.5 nM human MAP4K4 kinase domain (Invitrogen); purchased Invitrogen
Assay: MAP4K4 kinase activity, CisBio HTRF Transcreener ADP assay
Format: biochemical
Conditions: IC50 category; ATP at Km (10 μM), 0.5 nM kinase domain, 2 h; read-out: MAP4K4
Text: Compounds of the present invention were screened for their inhibitory activity against MAP4K4, versus selected off-target hits found with early members of this chemical series. MAP4K4 kinase activity was monitored using the CisBio HTRF Transcreener ADP assay, a competitive immunoassay with a reproducible Z′>0.6. In the detection step, endogenous ADP and d2-labeled ADP compete for binding an anti-ADP monoclonal antibody labelled with Eu^3+ cryptate. A ratiometric fluorescent read-out is used at 665 and 620 nm. Reactions were performed in the presence of 1% DMSO with ATP added at Km (10 μM), 0.5 nM human MAP4K4 kinase domain (Invitrogen), 1 μM biotin-myelin basic protein as substrate (Invitrogen), and extension of reaction time to 2 h. Assays were run in Greiner low volume plates with a final reaction volume of 10 μl. The MAP4K4 inhibition data are provided in Table 41 below for selected compounds of the present invention. The data has been categorised based on the IC50 value of the compound as “A”, “B” or “C”. IC50: A≤100 nM; 100 nM<B≤1 μM; 1 μM<C; nd=not determined.

T1 sequence (O95819 25-289 limits assumed): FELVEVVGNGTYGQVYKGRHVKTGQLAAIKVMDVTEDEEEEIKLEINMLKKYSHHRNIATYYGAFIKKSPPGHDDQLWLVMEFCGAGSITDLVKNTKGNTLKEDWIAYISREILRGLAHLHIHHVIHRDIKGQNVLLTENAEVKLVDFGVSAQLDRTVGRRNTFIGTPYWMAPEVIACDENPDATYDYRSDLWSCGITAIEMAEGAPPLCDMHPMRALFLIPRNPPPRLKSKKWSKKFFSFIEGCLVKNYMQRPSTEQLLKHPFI

SMILES | pIC50
O=C(C1CC1)N1CC(n2cc(-c3cn(-c4cccc(F)c4)c4nc[nH]c(=O)c34)cn2)C1 [Ex-15] | ≥ 7.00
COCCn1cc(-c2cn(-c3cccc(F)c3)c3nc[nH]c(=O)c23)cn1 [Ex-20] | ≥ 7.00
CC(C)(O)C(O)COc1ccc(-c2cn(-c3cccnc3)c3nc[nH]c(=O)c23)cc1 (stereo not shown) [Ex-81] | ≥ 7.00
CN1CCN(CCCOc2ccc(-c3cn(-c4cccnc4)c4nc[nH]c(=O)c34)cc2)CC1 [Ex-43] | ≥ 7.00
O=c1[nH]cnc2c1c(-c1ccc(O[C@@H]3CO[C@@H]4[C@H]3OC[C@@H]4O)cc1)cn2-c1cccnc1 [Ex-80] | ≥ 7.00
CC(C)(O)CCOc1ccc(-c2cn(-c3cncc(F)c3)c3nc[nH]c(=O)c23)cc1 [Ex-84] | 6.00 to 7.00
O=c1[nH]cnc2c1c(-c1ccc(OC(F)(F)CO)cc1)cn2-c1cccnc1 [Ex-77] | ≥ 7.00
COC(COc1ccc(-c2cn(-c3cccnc3)c3nc[nH]c(=O)c23)cc1)CN1CCOCC1 (stereo not shown) [Ex-34] | ≥ 7.00
O=c1[nH]cnc2c1c(-c1cnn(CCO)c1)cn2-c1cccc(F)c1 [Ex-59] | ≥ 7.00
Cc1cc(-n2cc(-c3ccc(OCCC(C)(C)O)cc3)c3c(=O)[nH]cnc32)ccn1 [Ex-82] | 6.00 to 7.00
Cn1cnc2cccc(-c3cn(-c4ccccc4)c4c(=O)[nH]cnc34)c21 [Ex-129] | < 6.00
CC(C)(O)CCOc1ccc(-c2cn(-c3cccnc3)c3ncn(COP(=O)(O)O)c(=O)c23)cc1 [Ex-102, (5-(4-(3-hydroxy-3-methylbutoxy)phenyl)-4-oxo-7-(pyridin-3-yl)-4,7-dihydro-3H-pyrrolo[2,3-d]pyrimidin-3-yl)methyl dihydrogen phosphate] | < 6.00
O=c1[nH]cnc2c1c(-c1ccc(OCCC3(O)COC3)cc1)cn2-c1cccnc1 [Ex-91] | ≥ 7.00
O=c1[nH]cnc2c1c(-c1ccc(OCCCN3CCOCC3)cc1)cn2-c1cccnc1 [Ex-42] | ≥ 7.00
COCCn1cc(-c2cn(-c3cccnc3)c3nc[nH]c(=O)c23)cn1 [Ex-19] | 6.00 to 7.00
COCCOc1ccc(-c2cn(-c3ccncc3)c3nc[nH]c(=O)c23)cn1 [Ex-13] | ≥ 7.00
O=c1[nH]cnc2c(-c3cccnc3)cn(-c3ccccc3)c12 [Ex-124] | 6.00 to 7.00
Cn1ccc(-c2cn(-c3ccccc3)c3c(=O)[nH]cnc23)n1 [Ex-122] | < 6.00
CNCCC(=O)Nc1ccc(-c2cn(-c3ccncc3)c3nc[nH]c(=O)c23)cc1 [Ex-10] | 6.00 to 7.00
COCCOc1ccc(-c2cn(-c3cccnc3)c3ncn(COP(=O)(O)O)c(=O)c23)cc1 [Ex-103] | < 6.00
O=c1[nH]cnc2c(-c3ccncc3F)cn(-c3ccccc3)c12 [Ex-121] | < 6.00
CC(=O)OCCn1cc(-c2cn(-c3ccc(F)cc3)c3nc[nH]c(=O)c23)cn1 [Ex-47, 2-(4-(7-(4-fluorophenyl)-4-oxo-4,7-dihydro-3H-pyrrolo[2,3-d]pyrimidin-5-yl)-1H-pyrazol-1-yl)ethyl Acetate] | 6.00 to 7.00
CC(C)(CO)COc1ccc(-c2cn(-c3cccnc3)c3nc[nH]c(=O)c23)cc1 [Ex-92] | ≥ 7.00
O=c1[nH]cnc2c(-c3ccnnc3)cn(-c3ccccc3)c12 [Ex-116] | 6.00 to 7.00
CC(C)(O)CCOc1ccc(-c2cn(-c3ccc(N)nc3)c3nc[nH]c(=O)c23)cc1 [Ex-96, 7-(6-aminopyridin-3-yl)-5-(4-(3-hydroxy-3-methylbutoxy)phenyl)-3,7-dihydro-4H-pyrrolo[2,3-d]pyrimidin-4-one] | ≥ 7.00
COc1ccc(-c2cn(-c3ccccc3)c3c(=O)[nH]cnc23)cn1 [Ex-132] | 6.00 to 7.00
CC(C)(O)CCOc1ccc(-c2cn(-c3cccnc3)c3nc[nH]c(=O)c23)cc1F [Ex-73] | ≥ 7.00
COCCNc1ccc(-c2cn(-c3cccc(F)c3)c3nc[nH]c(=O)c23)cn1 [Ex-30] | ≥ 7.00
O=c1cc(-c2cn(-c3ccccc3)c3c(=O)[nH]cnc23)cc[nH]1 [Ex-128] | 6.00 to 7.00
CC(C)(O)COc1ccc(-c2cn(-c3cc[n+]([O-])cc3)c3nc[nH]c(=O)c23)cc1 [Ex-98] | 6.00 to 7.00

Continued, values first:

pIC50 | SMILES
6.00 to 7.00 | O=c1[nH]cnc2c1c(-c1cnc(NCCO)nc1)cn2-c1cccnc1 [Ex-45]
≥ 7.00 | Cn1cc(-c2cn(-c3ccccc3)c3nc[nH]c(=O)c23)cn1 [Ex-24]
6.00 to 7.00 | O=c1[nH]cnc2c1c(-c1cnc(N3CC(O)C3)nc1)cn2-c1ccccc1 [Ex-50]
6.00 to 7.00 | O=c1[nH]cnc2c1c(-c1ccncc1F)cn2-c1ccccc1 [Ex-61]
< 6.00 | Cc1ccc(-c2cn(-c3ccccc3)c3c(=O)[nH]cnc23)cn1 [Ex-131]
6.00 to 7.00 | O=c1[nH]cnc2c1c(-c1ccn[nH]1)cn2-c1ccccc1 [Ex-57]
≥ 7.00 | O=c1[nH]cnc2c1c(-c1ccc(NCCO)nc1)cn2-c1ccccc1 [Ex-48, 5-[6-(2-Hydroxy-ethylamino)-pyridin-3-yl]-7-phenyl-3,7-dihydro-pyrrolo[2,3-d]pyrimidin-4-one]
6.00 to 7.00 | O=c1[nH]cnc2c1c(-c1ccccc1)cn2-c1ccncc1 [Ex-2]
< 6.00 | COc1ccc(-c2cn(-c3ccccc3)c3nc[nH]c(=O)c23)nn1 [Ex-104, 5-(6-Methoxy-pyridazin-3-yl)-7-phenyl-3,7-dihydro-pyrrolo[2,3-d]pyrimidin-4-one]
6.00 to 7.00 | O=c1[nH]cnc2c1c(-c1cnn(C3CNC3)c1)cn2-c1ccccc1 [Ex-108, 5-(1-Azetidin-3-yl-1H-pyrazol-4-yl)-7-phenyl-3,7-dihydro-pyrrolo[2,3-d]pyrimidin-4-one]
≥ 7.00 | O=c1[nH]cnc2c1c(-c1cn[nH]c1)cn2-c1ccccc1 [Ex-112, 7-Phenyl-5-(1H-pyrazol-4-yl)-3,7-dihydro-pyrrolo[2,3-d]pyrimidin-4-one]
≥ 7.00 | CN(CCO)c1ncc(-c2cn(-c3ccccc3)c3nc[nH]c(=O)c23)cc1C#N [Ex-53]
< 6.00 | Cc1noc(C)c1-c1cn(-c2ccccc2)c2nc[nH]c(=O)c12 [Ex-7]
≥ 7.00 | O=c1[nH]cnc2c1c(-c1cccnc1)cn2-c1ccccc1 [Ex-5]
≥ 7.00 | CC(C)(O)CCOc1ccc(-c2cn(-c3ccccc3)c3nc[nH]c(=O)c23)cn1 [Ex-75]
< 6.00 | O=c1[nH]cnc2c1c(-c1ccccn1)cn2-c1ccccc1 [Ex-106]
≥ 7.00 | COCCNc1ncc(-c2cn(-c3cccc(F)c3)c3nc[nH]c(=O)c23)cn1 [Ex-31]
6.00 to 7.00 | O=c1[nH]cnc2c(-c3ccc(OC4CC4)nc3)cn(-c3ccccc3)c12 [Ex-137, 7-(6-cyclopropoxypyridin-3-yl)-5-phenyl-3,5-dihydro-4H-pyrrolo[3,2-d]pyrimidin-4-one]
≥ 7.00 | CC(C)(O)CCNc1ccc(-c2cn(-c3ccccc3)c3nc[nH]c(=O)c23)cn1 [Ex-94, 5-[6-[(3-hydroxy-3-methyl-butyl)amino]-3-pyridyl]-7-phenyl-3H-pyrrolo[2,3-d]pyrimidin-4-one]
≥ 7.00 | O=c1[nH]cnc2c1c(-c1ccncc1)cn2-c1ccccc1 [Ex-4]
≥ 7.00 | N#Cc1cc(-c2cn(-c3ccccc3)c3nc[nH]c(=O)c23)cnc1N1CC[C@@H](O)C1 [Ex-40]
≥ 7.00 | CC(=O)NC1CC(n2cc(-c3cn(-c4ccccc4)c4nc[nH]c(=O)c34)cn2)C1 (stereo not shown) [Ex-16]
